According to patent US20230061608A1, “SUBSTITUTED QUINOLINONYL PIPERAZINE COMPOUNDS USEFUL AS T CELL ACTIVATORS” (BRISTOL-MYERS SQUIBB COMPANY, priority 2019, published 2023):

How the values were obtained:
DGKζ = molecular target: T1, DGKζ (Homo sapiens, UniProt Q13574); assay: In vitro DGK inhibition assay, DGKζ LIPGLO (extruded liposomes); assay type: biochemical; settings: liposome (LIPGLO) assay, 150 μM ATP, 5 nM enzyme
T1 construct: Full length human DGKα and DGKζ, each expressed containing a TVMV-cleavable C-terminal Hexa-His tag; made in house; host or cells: Sf9 insect cells, baculovirus (Bac-to-Bac)
T1 sequence (Q13574 1-929 isoform Q13574-4): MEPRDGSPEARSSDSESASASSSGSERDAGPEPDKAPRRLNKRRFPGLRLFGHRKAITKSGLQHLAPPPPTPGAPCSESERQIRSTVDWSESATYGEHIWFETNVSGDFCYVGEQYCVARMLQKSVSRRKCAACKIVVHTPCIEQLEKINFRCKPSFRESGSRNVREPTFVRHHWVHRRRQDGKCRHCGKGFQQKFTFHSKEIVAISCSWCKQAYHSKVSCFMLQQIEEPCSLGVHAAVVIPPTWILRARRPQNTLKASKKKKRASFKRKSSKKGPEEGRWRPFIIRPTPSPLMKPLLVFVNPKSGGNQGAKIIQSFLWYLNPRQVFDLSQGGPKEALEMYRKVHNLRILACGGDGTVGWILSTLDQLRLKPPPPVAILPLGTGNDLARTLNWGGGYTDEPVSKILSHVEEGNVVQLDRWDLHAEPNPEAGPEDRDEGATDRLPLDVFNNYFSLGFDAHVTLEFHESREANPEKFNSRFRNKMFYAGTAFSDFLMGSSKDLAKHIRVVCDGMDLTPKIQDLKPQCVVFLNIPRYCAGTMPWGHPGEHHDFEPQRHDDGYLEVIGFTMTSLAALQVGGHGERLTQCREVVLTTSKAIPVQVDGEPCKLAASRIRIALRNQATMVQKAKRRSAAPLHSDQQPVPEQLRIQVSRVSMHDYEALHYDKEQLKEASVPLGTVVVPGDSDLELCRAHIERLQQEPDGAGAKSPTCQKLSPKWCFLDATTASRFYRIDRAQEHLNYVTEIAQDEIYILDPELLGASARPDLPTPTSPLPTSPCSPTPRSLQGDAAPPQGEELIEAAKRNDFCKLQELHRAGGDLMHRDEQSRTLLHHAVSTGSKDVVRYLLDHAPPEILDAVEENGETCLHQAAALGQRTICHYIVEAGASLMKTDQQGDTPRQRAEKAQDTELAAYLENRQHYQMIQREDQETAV
Procedure: (§1) Assay 1: In vitro DGK Inhibition Assays—Method A
(§2) The DGKα and DGKζ reactions were performed using extruded liposomes (DGKα and DGKζ LIPGLO assays). The reactions were carried out in 50 mM MOPS pH 7.5, 100 mM NaCl, 10 mM MgCl2, 1 μM CaCl2), and 1 mM DTT (assay buffer). The lipid substrate concentrations were 2 mM PS, 0.25 mM DAG, and 2.75 mM PC for the extruded liposome reactions. The reactions were carried out in 150 μM ATP. The enzyme concentrations for the DGKα and DGKζ were 5 nM.
(§3) The compound inhibition studies were carried out as follows: 50 nL droplets of each test compound (top concentration 10 mM with 11 point, 3-fold dilution series for each compound) solubilized in DMSO were transferred to wells of a white 1536 well plate (Corning 3725). A 5 mL enzyme/substrate solution at 2× final reaction concentration was prepared by combining 2.5 mL 4× enzyme solution (20 nM DGKα or DGKζ (prepared as described below) in assay buffer) and 2.5 mL of 4× liposome solution (compositions described below) and incubated at room temperature for 10 minutes. Next, 1 μL 2× enzyme/substrate solution was added to wells containing the test compound and reactions were initiated with the addition of 1 μL 300 uM ATP. The reactions were allowed to proceed for 1 hr, after which 2 μL Glo Reagent (Promega V9101) was added and incubated for 40 minutes. Next, 4 μL Kinase Detection Reagent was added and incubated for 30 minutes. Luminescence was recorded using an EnVision microplate reader. The percent inhibition was calculated from the ATP conversion generated by no enzyme control reactions for 100% inhibition and vehicle-only reactions for 0% inhibition. The compounds were evaluated at 11 concentrations to determine IC50.
(§4) The lipid composition was 5 mol % DAG (Avanti 8008110), 40 mol % PS (Avanti 840035P), and 55 mol % PC (Avanti 850457) at a total lipid concentration of 15.2 mg/mL for the 4× liposome solution. The PC, DAG, and PS were dissolved in chloroform, combined, and dried in vacuo to a thin film. The lipids were hydrated to 20 mM in 50 mM MOPS pH 7.5, 100 mM NaCl, 5 mM MgCl2, and were freeze-thawed five times. The lipid suspension was extruded through a 100 nm polycarbonate filter eleven times. Dynamic light scattering was carried out to confirm liposome size (50-60 nm radius). The liposome preparation was stored at 4° C. for as long as four weeks.
(§5) Human DGK-alpha-TVMV-His-pFBgate and human DGK-zeta-transcript variant-2-TVMV-His-pFBgate baculovirus samples were generated using the Bac-to-Bac baculovirus expression system (Invitrogen) according to the manufacturer's protocol. The DNA used for expression of DGK-alpha and DGK-zeta have SEQ ID NOs: 1 and 3, respectively. Baculovirus amplification was achieved using infected Sf9 cells at 1:1500 virus/cell ratios, and grown for 65 hours at 27° C. post-transfection.
(§6) Full length human DGKα and DGKζ, each expressed containing a TVMV-cleavable C-terminal Hexa-His tag sequence (SEQ ID NOs: 2 and 4, respectively) and produced as described above, were purified from Sf9 baculovirus-infected insect cell paste. The cells were lysed using nitrogen cavitation method with a nitrogen bomb (Parr Instruments), and the lysates were clarified by centrifugation. The clarified lysates were purified to ˜90% homogeneity, using three successive column chromatography steps on an ÄKTA Purifier Plus system. The three steps column chromatography included nickel affinity resin capture (i.e. HisTrap FF crude, GE Healthcare), followed by size exclusion chromatography (i.e. HiLoad 26/600 Superdex 200 prep grade, GE Healthcare for DGK-alpha, and HiPrep 26/600 Sephacryl S 300_HR, GE Healthcare for DGK-zeta). The third step was ion exchange chromatography, and differed for the two isoforms. DGKα was polished using Q-Sepharose anion exchange chromatography (GE Healthcare). DGKζ was polished using SP Sepharose cation exchange chromatography (GE Healthcare). The proteins were delivered at concentrations of ≥2 mg/mL. […]

DGKα = molecular target: T2, DGKα (Homo sapiens, UniProt P23743); assay: In vitro DGK inhibition assay, DGKα LIPGLO (extruded liposomes); assay type: biochemical; settings: liposome (LIPGLO) assay, 150 μM ATP, 5 nM enzyme
T2 construct: made in house; host or cells: Sf9 insect cells, baculovirus (Bac-to-Bac)
T2 sequence (P23743 whole entry): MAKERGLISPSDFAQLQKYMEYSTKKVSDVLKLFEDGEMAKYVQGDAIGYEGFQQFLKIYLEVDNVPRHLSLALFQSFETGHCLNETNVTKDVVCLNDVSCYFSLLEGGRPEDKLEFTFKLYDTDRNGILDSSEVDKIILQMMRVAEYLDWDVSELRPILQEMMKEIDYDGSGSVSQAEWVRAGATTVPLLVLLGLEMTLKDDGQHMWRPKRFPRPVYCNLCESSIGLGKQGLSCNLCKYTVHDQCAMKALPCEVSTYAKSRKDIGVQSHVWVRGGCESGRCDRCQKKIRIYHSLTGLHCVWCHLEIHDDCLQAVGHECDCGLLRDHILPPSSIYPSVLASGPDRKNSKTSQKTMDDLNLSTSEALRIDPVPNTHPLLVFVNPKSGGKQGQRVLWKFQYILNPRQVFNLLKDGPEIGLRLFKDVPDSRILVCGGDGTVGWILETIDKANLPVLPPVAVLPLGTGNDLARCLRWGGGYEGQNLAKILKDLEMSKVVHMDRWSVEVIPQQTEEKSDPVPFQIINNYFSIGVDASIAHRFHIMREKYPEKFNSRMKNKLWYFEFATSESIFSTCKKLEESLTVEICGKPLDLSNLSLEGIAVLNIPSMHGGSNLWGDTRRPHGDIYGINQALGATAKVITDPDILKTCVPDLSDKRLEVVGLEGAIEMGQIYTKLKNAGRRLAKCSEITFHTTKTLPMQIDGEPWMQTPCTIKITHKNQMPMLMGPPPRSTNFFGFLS
Procedure: as §1, §2, §3, §4, §5, §6

Compound | IC50 (DGKζ) [µM] | IC50 (DGKα) [µM]
C[C@@H]1CN(c2c(C#N)c(=O)n(C)c3ccccc23)[C@@H](C)CN1C(c1ccc(F)cc1)c1ccc(F)cc1 (stereo in doubt) [Example 6, 4-[(2S,5R)-4-[bis(4-fluorophenyl)methyl]-2,5-dimethylpiperazin-1-yl]-1-methyl-2-oxo-1,2-dihydroquinoline-3-carbonitrile] | > 27 | 0.7
C[C@@H]1CN(c2cc(=O)n(C)c3ccc(C#N)cc23)[C@@H](C)CN1C(c1ccc(F)cc1)c1ccc(F)cc1 (stereo in doubt) [Example 7, 4-[(2S,5R)-4-[bis(4-fluorophenyl)methyl]-2,5-dimethylpiperazin-1-yl]-1-methyl-2-oxo-1,2-dihydroquinoline-6-carbonitrile] | > 250 | 1.3
Cn1c(=O)c([N+](=O)[O-])c(N2CCN(Cc3ccccc3)C(=O)C2)c2cc(F)ccc21 [Example 5, 4-(4-benzyl-3-oxopiperazin-1-yl)-6-fluoro-1-methyl-3-nitro-1,2-dihydroquinolin-2-one] | > 240 | 0.5
Cn1c(=O)c(CO)c(N2CCN(C(c3ccccc3)c3ccccc3)CC2)c2ccccc21 [Example 11, 4-[4-(diphenylmethyl)piperazin-1-yl]-3-(hydroxymethyl)-1-methyl-1,2-dihydroquinolin-2-one] | > 240 | 90

The remaining lines, values ahead:

IC50 (DGKζ) [µM] | IC50 (DGKα) [µM] | Compound
41 | 0.0073 | Cn1c(=O)c([N+](=O)[O-])c(N2CCN(Cc3cccc(F)c3)CC2)c2cc(F)ccc21 [Example 1, 6-fluoro-4-{4-[(3-fluorophenyl)methyl]piperazin-1-yl}-1-methyl-3-nitro-1,2-dihydroquinolin-2-one]
35 | 0.051 | Cc1cc(F)cc(CN2CCN(c3c(-c4ccncc4)c(=O)n(C)c4ccc(F)cc34)CC2)c1 [Example 2, 6-fluoro-4-{4-[(3-fluoro-5-methylphenyl)methyl]piperazin-1-yl}-1-methyl-3-(pyridin-4-yl)-1,2-dihydroquinolin-2-one]
7.9 | 0.15 | CCn1ccc2c(CN3CCN(c4c([N+](=O)[O-])c(=O)n(C)c5ccc(F)cc45)CC3)cccc21 [Example 4, 4-{4-[(1-ethyl-1H-indol-4-yl)methyl]piperazin-1-yl}-6-fluoro-1-methyl-3-nitro-1,2-dihydroquinolin-2-one]
82 | 39 | COc1ccc2c(c1)c(N1CCN(Cc3cccc4ccccc34)CC1)c([N+](=O)[O-])c(=O)n2C [Example 8, 6-methoxy-1-methyl-4-{4-[(naphthalen-1-yl)methyl]piperazin-1-yl}-3-nitro-1,2-dihydroquinolin-2-one]
